Data on 8 compounds can be found in patent US20110178117A1 (Merck Sharp & Dohme Corp., priority 2008, published 2011).

In the assay the target is T1, recombinant human mGluR2 (Homo sapiens, UniProt Q14416).
T1 construct: expressed in transfected cells
T1 sequence (Q14416 19-872): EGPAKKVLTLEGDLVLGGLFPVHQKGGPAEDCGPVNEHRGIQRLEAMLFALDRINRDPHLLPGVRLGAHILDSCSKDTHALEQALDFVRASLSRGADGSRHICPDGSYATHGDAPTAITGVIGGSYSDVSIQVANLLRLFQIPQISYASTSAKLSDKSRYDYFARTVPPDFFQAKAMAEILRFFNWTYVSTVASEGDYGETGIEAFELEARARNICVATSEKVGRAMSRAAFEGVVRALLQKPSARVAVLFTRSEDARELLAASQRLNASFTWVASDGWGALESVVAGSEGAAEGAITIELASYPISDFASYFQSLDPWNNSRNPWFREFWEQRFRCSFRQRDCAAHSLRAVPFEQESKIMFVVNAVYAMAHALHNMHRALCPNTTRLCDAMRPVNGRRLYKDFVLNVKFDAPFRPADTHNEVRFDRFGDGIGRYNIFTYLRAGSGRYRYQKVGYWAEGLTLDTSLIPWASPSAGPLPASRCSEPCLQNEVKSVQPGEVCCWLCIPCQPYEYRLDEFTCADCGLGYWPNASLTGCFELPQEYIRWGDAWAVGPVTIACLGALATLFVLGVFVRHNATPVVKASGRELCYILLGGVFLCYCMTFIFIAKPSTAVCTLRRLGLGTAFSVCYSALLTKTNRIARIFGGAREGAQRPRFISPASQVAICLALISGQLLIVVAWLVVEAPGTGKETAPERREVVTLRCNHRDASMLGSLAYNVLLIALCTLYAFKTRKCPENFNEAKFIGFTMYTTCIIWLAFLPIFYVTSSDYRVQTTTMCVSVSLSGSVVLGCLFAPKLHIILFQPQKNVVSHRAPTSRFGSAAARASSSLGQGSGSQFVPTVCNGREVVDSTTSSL
Kind of assay: FLIPR Ca2+ mobilization assay, potentiation of glutamate response. The assay is classed as cell-based. As to conditions: CHO dhfr- cells expressing human mGluR2 and Gα16; potentiation after EC20 glutamate (900 nM); read-out: Representative FLIPR EC50 Values: EC50. As to the method:
The compounds of the present invention may be tested in a fluorescence laser imaging plate reader (FLIPR) based assay. This assay is a common functional assay to monitor Ca^2+ mobilization in whole cells expressing recombinant receptor coupled with a promiscuous G-protein. CHO dhfr-cells stably expressing recombinant human mGluR2 and Gα16 loaded with Fluo-4 AM (Invitrogen, Carlsbad Calif.) are treated with dose responses of compounds and the Ca^2+ response is monitored on a FLIPR384 (Molecular Devices, Sunnydale Calif.) for agonist activity. The potentiation response is monitored after a subsequent addition of an EC20 concentration of glutamate (900 nM). The maximum calcium response at each concentration of compound for agonist or potentiation are plotted as dose responses and the curves are fitted with a four parameters logistic equation giving EC50 and Hill coefficient using the iterative non linear curve fitting software program.
A general note: Calcium flux is commonly read through the fluorescence of an indicator in the cells.
`CCCCCC[C@@H]1Cn2c(nc3ccccc32)O1` [Example 1-5, (2R)-2-hexyl-2,3-dihydro[1,3]oxazolo[3,2-a]benzimidazole]: the EC50 worked out at 21 nM.

Consider `CCCCCC[C@@H]1Cn2c(nc3cc(C#N)ccc32)O1` [Example 1-19, (2R)-2-hexyl-2,3-dihydro[1,3]oxazolo[3,2-a]benzimidazole-7-carbonitrile], for which the half-maximal effective concentration (EC50) came to 11 nM.

Regarding `COCCCCC1Cn2c(nc3ccccc32)O1` (centres unmarked) [Example 1-21, 2-(4-methoxybutyl)-2,3-dihydrobenzo[d]oxazolo[3,2-a]imidazole], the EC50 turned out to be 3120 nM.

Turning to `c1ccc2c(c1)nc1n2CC(CC2CCCCC2)O1` (centres unmarked) [Example 3-5, 2-(cyclohexylmethyl)-2,3-dihydro[1,3]oxazolo[3,2-a]benzimidazole], the EC50 is 2140 nM.

Consider `CC(C)(C)OC(=O)N1CCCC(C2Cn3c(nc4ccccc43)O2)C1` (centres unmarked) [Example 3-7, tert-butyl 3-(2,3-dihydro[1,3]oxazolo[3,2-a]benzimidazole-2-yl)piperidine-1-carboxylate], for which the 50% effective concentration (EC50) was 378 nM.

For `CCCCCCC1(C)Cn2c(nc3ccccc32)O1` (centres unmarked) [Example 4-2, 2-hexyl-2-methyl-2,3-dihydro[1,3]oxazolo[3,2-a]benzimidazole], the EC50 was determined as 622 nM.

With `CCCCCCC1(CC)Cn2c(nc3ccccc32)O1` (centres unmarked) [Example 4-3], the EC50 was 2290 nM.

For the compound “(R)-2-(6-fluorohexyl)-2,3-dihydrobenzo oxazolo[3,2-a]imidazole-7-carbonitrile [Example 1-31]”, the EC50 is 68 nM.

In general, EC50 refers to the concentration that produces a half-maximal response.
